The source of these data is publication PMC2852844, “Anti-Parasitic Compounds from Streptomyces sp. Strains Isolated from Mediterranean Sponges” (Marine Drugs, 2010).

The term IC50 denotes the concentration at which inhibition is half-maximal.

One data set is described as follows: in vitro. To be noted: human.
In data set [1] the test system is Trypanosoma brucei brucei laboratory strain TC 221. The data set can be described thus: Trypanosoma brucei brucei trypomastigote growth inhibition (Alamar Blue). In kind it is cell-based. The protocol: [22] Trypomastigote forms of Trypanosoma brucei brucei laboratory strain TC 221 were cultured in complete Baltz medium [80 mL Baltz medium basic solution, 0.8 mL 2 mercaptoethanol stock solution (20 mM), 0.8 mL penicillin/streptomycin (10,000 U/mL), 16 mL FCS (inactivated for 30 min at 56 °C). Baltz medium basic solution is composed of the following: 500 mL MEM with Earle’s salts and L-glutamine, 3 g Hepes, 0.5 g monohydrate glucose, 0.110 g sodium pyruvate, 0.007 g hypoxanthine, 0.002 g thymidine, 0.0107 g adenosine, 0.0141 g bathocuproine disulfonic acid disodium salt, 0.146 g glutamine, 5 mL sterile non-essential amino acid concentrate (100×, pH 7.5). A defined number of parasites ([…]) were exposed in test chambers of 96-well plates to various concentrations of the test substances (previously dissolved in DMSO) to make a final volume of 200 μL in duplicates. Positive (trypanosomes in culture medium) and negative controls (test substance without trypanosomes) were run simultaneously with each plate. The plates were then incubated at 37 °C in an atmosphere of 5% CO2 for a total time period of 72 h. After 24 h, 20 μL of Alamar Blue was added. […]. The first reading was done at 48 h and subsequently at 72 h. The effect of the test substances was quantified in IC50 values by linear interpolation of three independent measurements.
(In general: The colour change of resazurin is a common sign of viable cells or microbes.)

Data set [2] relates to Leishmania major promastigotes. The data set can be described thus: Leishmania major promastigote growth inhibition (Alamar Blue). It counts as cell-based.
Procedure: Leishmania major promastigotes were seeded at a cell density of 1 × 10^7 cells/mL into 96-well plates in complete medium (RPMI with NaHCO3, 10% FCS, 2 mM glutamine, 10 mM Hepes pH 7.2, 100 U/mL penicillin, 50 μg/mL gentamicin, 50 mM 2-mercaptoethanol) without phenol red (200 mL), in the absence or presence of different concentrations of the compounds. These were then incubated for 24 h at 26 °C, 5% CO2 and 95% humidity. Following the addition of 20 mL of Alamar Blue, the plates were incubated again and the optical densities (ODs) measured 24 h and 48 h later with an enzyme-linked immunosorbent assay (ELISA) reader (Multiskan Ascent, Germany) using a test wavelength of 540 nm and a reference wavelength of 630 nm. Absorbance in the absence of compounds was set as 100% of growth. Amphotericin B was used as a reference compound and positive control. The effects of cell density, incubation time and the concentration of DMSO were examined in control experiments. The final concentration of DMSO in the medium never exceeded 1% vol/vol and had no effect on the proliferation of extracellular or intracellular parasites. For each experiment, each drug concentration was assayed in duplicate wells [31]
A short description of data set [3]: Cytotoxicity against 293T kidney epithelial cells (Alamar Blue). To be noted: human.
Procedure: (§1) Following the addition of 20 μL of Alamar Blue, the plates were incubated and the ODs measured at 24 h, 48 h and 72 h.
Data set [4] is described as follows: Cytotoxicity against J774.1 macrophages (Alamar Blue). The conditions noted are these: mouse.
Procedure: as §1

Read-outs that look alike come from different tables or passages of the source.

Procedure for in vitro: as §1

With `CN[C@@H]1C[C@H]2O[C@@](C)([C@@H]1OC)n1c3ccccc3c3c4c(c5c6ccccc6n2c5c31)C(=O)NC4` [staurosporine], the IC50 in the data set “in vitro” was determined as 1300 nM; in data set [1] (reading at 48 h, read-out: IC50 Trypanosoma brucei brucei (48 h)) it was 22 nM; in data set [1] (reading at 72 h, read-out: IC50 Trypanosoma brucei brucei (72 h)), 35 nM.
Consider `CC(C)[C@@H]1NC(=O)[C@H](C)OC(=O)[C@@H](C(C)C)NC(=O)[C@@H](C(C)C)OC(=O)[C@H](C(C)C)NC(=O)[C@H](C)OC(=O)[C@@H](C(C)C)NC(=O)[C@@H](C(C)C)OC(=O)[C@H](C(C)C)NC(=O)[C@H](C)OC(=O)[C@@H](C(C)C)NC(=O)[C@@H](C(C)C)OC1=O` [valinomycin], for which the IC50 in data set [2] is below 110 nM; in data set [1] (48 h, read-out: IC50 Trypanosoma brucei brucei (48 h)) it was 3.2 nM; in data set [1] (72 h, read-out: IC50 Trypanosoma brucei brucei (72 h)) it was 3.6 nM. In addition, the values for the IC50 at 24 h in data set [3] and in data set [4] were 11200 nM and below 100 nM, respectively.
